{
  "source": "patent US20210308196A1",
  "about": "“COMPOSITIONS AND METHODS TO PROMOTE HOST DEFENSE AND STIMULATE, EXPAND, AND/OR RESET T CELL REPERTOIRES” (EVOLVE BIOSYSTEMS, INC., priority 2018, published 2021)",
  "key": {"diabetes mellitus": {"system": "diabetes mellitus", "experiment": "Prevention of type 1 diabetes in NOD mice", "type": "in vivo, mouse", "settings": "compared to control mice", "description": "Germ-free non-obese diabetic (NOD) mouse pups are weaned 3 weeks after birth and put on a polysaccharide-free diet that contains Vitamin A. As soon as the mouse pups are weaned, they are gavaged with a dysbiotic (no Bifidobacterium sp. and high proteobacteria) human infant microbiome at Day 1 of the experiment. The mice are divided into 4 groups: control, control plus LNnT, B. infantis, and B. infantis plus LNnT. Mice are given the composition for 21 days. All Groups receive B. infantis or a placebo every 3 days by gavage; the LNnT or placebo is added to the drinking water. Additional mice are divided into 2 groups These groups are gavaged with a healthy human infant microbiome (Bifidobacterium species) at day 21 of the experiment. The mice are then either fed placebo or LNnT in their drinking and receive vitamin A in their chow. Mice are monitored for diabetes with weekly tail vein blood glucose measurements and euthanized following two consecutive daily readings of >[…]. […] Plasma is evaluated for cytokines and innate immune factors. Fecal samples are taken every day and evaluated using qPCR and/or 16s and/or shotgun sequencing for microbial colonization. […]"}, "peanut extract allergy": {"system": "peanut extract allergy", "experiment": "Prevention of murine peanut allergy", "type": "in vivo, mouse", "description": "Germ-free mouse pups are weaned 3-4 weeks after birth and put on a polysaccharide-free diet that is enriched for Vitamin A. As soon as the mouse pups are weaned, they are gavaged with a dysbiotic (no Bifidobacterium sp. and high proteobacteria) human infant microbiome at Day 1 of the experiment. The mice are divided into 4 groups: control, control plus LNnT, B. infantis, and B. infantis plus LNnT. Mice are given the composition for 21 days. All Groups receive B. infantis or placebo every 3 days by gavage. The LNnT or placebo is added to the drinking water for 21 days. Mice receive intragastric gavage of peanut extract on weekly at 5 mg/mouse for sensitization and then 25 mg/mouse at week 5 for challenge with 10 μg of Cholera toxin to elicit anaphylaxis. Control animals receive intragastric gavage with vehicle only. Anaphylaxis symptoms are evaluated, and then mice are necropsied. Plasma samples are collected for evaluation of histamine and IgE concentrations. White blood cells are isolated for PBMC characterization and evaluation of regulatory T cell population expansion using flow cytometry specific for CD4, CD25, Foxp3, Helios, Neuropilin, CD8, CD44, CD62L, IFNgamma, IL-17, and B cell populations, including Bregs and plasma cells using the following markers: IgM, CD5, CD24, CD19, CD19, CD20, CD34, CD38, CD45R, CD78, CD80, and CD138."}, "zonulin": {"system": "zonulin", "experiment": "Fecal zonulin ELISA", "type": "in vivo, human", "settings": "treatment group", "description": "Fecal zonulin concentrations: Zonulin has been described as the main physiological modulator of intercellular tight junction, and increased levels are indicative of increased gut permeability."}, "[1]": {"experiment": "Immune development in C-section infants", "type": "in vivo, human", "settings": "baseline to three months", "description": "Approximately 25 mother-infant dyads are recruited to provide a cord blood sample and two infant blood samples, one on day 0-4 and another at 3 months old (between 84 and 104). Markers of immune function will be analysed and compared to the development of the gut microbiome.\nThe study design is described in FIG. 16. The change in levels of immune cells and markers from baseline (Day 0-Day 4) to three months (Day 84-Day 104) will be measured. The correlation between gut microbiota composition and abundance and levels of immune cells and markers may also be measured. The differences between B. infantis and placebo supplementation on levels of immune cells and markers in breast-fed infants.\nThe differences between B. infantis and placebo supplementation on vaccine response (antibody titers). Blood samples are collected at baseline and month-three postpartum for evaluation of peripheral blood mononuclear cell characterization (including regulatory T cells) and vaccine response."}, "[2]": {"experiment": "Safety and tolerability of B. infantis EVC001 supplementation in healthy term nursing infants", "type": "in vivo, human", "settings": "healthy term breastfed infants", "method": "This trial was designed to show the effect of probiotic supplementation with Bifidobacterium longum subsp. Infantis (B. infantis EVC001) in healthy, term, nursing infants compared to an unsupplemented group. A dry composition of lactose and activated Bifidobacterium longum subsp. infantis was prepared starting with the cultivation of a purified isolate (Strain EVC001 ATCC Accession No. PTA-125180, Evolve Biosystems Inc., Davis, Calif., isolated from a human infant fecal sample) in the presence of BMO according to International Patent Application No. PCT/US2015/057226. […] This concentrated powder was then diluted by blending with infant formula grade lactose to an activity level of about 30 Billion CFU/g. This composition then was loaded into individual sachets at about 0.625 g/sachet and provided to breast-fed infants starting on or about day 7 of life and then provided on a daily basis for the subsequent 21 days.\nThis was a 60-day study starting with infants' date of birth as Day 1. […]\nInfant fecal samples were collected throughout the 60-day trial. […] Safety and tolerability were determined from maternal reports of infants' feeding, stooling frequency, and consistency (using a modified Amsterdam infant stool scale—watery, soft, formed, hard; Bekkali et al. 2009), as well as GI symptoms and health outcomes. […]"}, "[3]": {"experiment": "Microbial short chain fatty acids by gas chromatography", "type": "in vivo, human", "settings": "treatment group", "description": "Microbial production of short chain fatty acids (SCFA): SCFA can modulate intestinal inflammation by regulating epithelial barrier function. Microbial short chain fatty acids (SCFA) are extracted by methods previously described and analyzed by gas chromatography HD and found to be elevated in the treatment group"}},
  "data": [
    {"substance": "Bifidobacterium longum subsp. infantis EVC001 [B. infantis EVC001]", "values": [
      {"measurement": "Incidence of the development of diabetes mellitus", "setting": "diabetes mellitus", "result": "reduces"},
      {"measurement": "Inflammatory responses to the food antigen", "setting": "peanut extract allergy; compared to control mice", "result": "reduce"},
      {"measurement": "Anaphylaxis", "setting": "peanut extract allergy; peanut extract challenge with Cholera toxin", "result": "prevent"},
      {"measurement": "Fecal zonulin concentration", "setting": "zonulin", "result": "significantly reduced"},
      {"measurement": "Inflammation", "setting": "[1]", "result": "reduced"},
      {"measurement": "Th17 and IL-17 level", "setting": "[1]", "result": "decreased"},
      {"measurement": "Tregs", "setting": "[1]", "result": "increased"},
      {"measurement": "Adverse events versus unsupplemented group", "setting": "[2]; 60-day study", "result": "not different between groups"},
      {"measurement": "Tolerability", "setting": "[2]; at least 1.8×10^10 cfu once daily for 21 days from Day 7", "result": "well-tolerated"},
      {"measurement": "Microbial short chain fatty acids (SCFA)", "setting": "[3]", "result": "elevated"}
    ]}
  ]
}
